The test system of the assay is G4T4G4 (DNA, G4) GGGGTTTTGGGG
Kind of assay: native ESI-MS. To be noted: 100 mM ammonium acetate (NH4+), no K+; apparent, site 1 of 2; 10 μM DNA, 20 μM ligand, 4 °C incubation.

Molecules are shown by their SMILES.

As for `COc1ccc(-[n+]2c3ccc4cc(OC)ccc4c3cc3c4ccc(OC)cc4ccc32)cc1` [DBA3], the Kd1 is 36.88 µM.
